# In patent US9994528B2, “Certain amino-pyridines and amino-triazines, compositions thereof, and methods for their use” (Cytokinetics, Inc., priority 2010, dated 2018):
# Tested on: rabbit skeletal myofibrils (approximately 90% fast fibers)
# Assay: Activation of fast skeletal myofibrils (PUMA coupled-enzyme ATPase assay)
# Assay type: biochemical
# Conditions: AC1.4 = concentration at which the compound increased the enzymatic activity by 40%; myofibril suspension at calcium level pCa25; PM12 buffer pH 6.8
# Description: Preparation of fast skeletal myofibrils. Rabbit skeletal myofibrils were prepared based upon the method of Herrmann et al. (Biochem. 32(28):7255-7263(1993). Myofibrils were prepared from rabbit psoas muscle purchased from Pel-Freez Biologicals (Arkansas) within 2 days of ordering, stored on ice. Minced muscle was homogenized in 10 volumes of ice-cold “standard” buffer (50 mM Tris, pH 7.4, 0.1 M potassium acetate, 5 mM KCl, 2 mM DTT, 0.2 mM PMSF, 10 μM leupeptin, 5 μM pepstatin, and 0.5 mM sodium azide) containing 5 mM EDTA and 0.5% Triton X-100 using an Omni-Macro homogenizer. Myofibrils were recovered by low speed centrifugation (3000 rpm for 10 minutes) and washed 2 times in the Triton X-100 containing buffer to ensure removal of cellular membrane. Following the Triton washes, myofibrils were washed 3 times in “standard” buffer containing 2 mM magnesium acetate. A final wash in assay buffer (12 mM PIPES, pH 6.8, 60 mM KCl, 1 mM DTT) was performed and brought to 10% sucrose for flash freezing in liquid nitrogen and storage at −80° C.
# Activation of Fast Skeletal Myofibrils. Fast fiber activators were identified by measuring the enzymatic activity of muscle myofibril preparations using the proprietary PUMA™ (see, e.g., U.S. Pat. Nos. 6,410,254, 6,743,599, 7,202,051, and 7,378,254) assay system. Myofibril preparations consisted of rabbit skeletal muscle (approximately 90% fast fibers) that had been mechanically homogenized and washed with a detergent (triton X-100) to remove cellular membranes. This preparation retained all of the sarcomeric components in a native conformation and the enzymatic activity was still regulated by calcium. Compounds were tested using a myofibril suspension and a level of calcium sufficient to increase enzymatic activity of the myofibrils to 25% of their maximal rate (termed pCa25). Enzymatic activity was tracked via a pyruvate kinase and lactate dehydrogenase-coupled enzyme system. This assay regenerates myosin-produced ADP into ATP by oxidizing NADH, producing an absorbance change at 340 nm. The buffering system was 12 mM Pipes, 2 mM MgCl2, 1 mM DTT at pH 6.8 (PM12 buffer).
# Using procedures similar to those described herein, utilizing reagents and intermediates commercially available (e.g., Sigma-Aldrich,) or readily synthesized by one of skill in the art, the compounds in Table 2 were synthesized, characterized and tested. AC1.4 values were determined according to the procedure described in Example 25, and the reported median AC1.4 values are as follows: A=<1 uM; B=1-10 uM; C=10-20 uM; D=>20 uM.
row,Mean AC1.4,SMILES
1,C (C=10-20 uM),"CC(C)(Nc1ncc(-c2cc(C(N)=O)ccc2F)nn1)c1ncccc1C(F)F [3-[3-({1-[3-(difluoromethyl)(2-pyridyl)]-isopropyl}amino)(1,2,4-triazin-6-yl)]-4-fluorobenzamide]"
2,D (D=>20 uM),"CC(C)(Nc1ncc(-c2cc(C#N)ccc2F)nn1)c1ncccc1C(F)F [3-[3-({1-[3-(difluoromethyl)(2-pyridyl)]-isopropyl}amino)(1,2,4-triazin-6-yl)]-4-fluorobenzenecarbonitrile]"
3,A (A=<1 uM),"CC(C)(Nc1ncc(-c2cc(C(N)=O)ccc2F)nn1)c1cccc(OC(F)F)n1 [3-[3-({1-[6-(difluoromethoxy)(2-pyridyl)]-isopropyl}amino)(1,2,4-triazin-6-yl)]-4-fluorobenzamide]"
4,B (B=1-10 uM),"CC(C)(Nc1ncc(-c2cc(C(N)=O)ccc2F)nn1)c1cccc(C(F)F)n1 [3-[3-({1-[6-(difluoromethyl)(2-pyridyl)]-isopropyl}amino)(1,2,4-triazin-6-yl)]-4-fluorobenzamide]"
5,B (B=1-10 uM),"CC(C)(Nc1ncc(-c2cc(C#N)ccc2F)nn1)c1cccc(C(F)F)n1 [3-[3-({1-[6-(difluoromethyl)(2-pyridyl)]-isopropyl}amino)(1,2,4-triazin-6-yl)]-4-fluorobenzenecarbonitrile]"
6,A (A=<1 uM),"NC(=O)c1ccc(F)c(-c2cnc(NCC3(c4ncccc4Cl)CC(F)(F)C3)nn2)c1 [3-[3-({[1-(3-chloro(2-pyridyl))-3,3-difluorocyclobutyl]methyl}amino)(1,2,4-triazin-6-yl)]-4-fluorobenzamide]"
7,A (A=<1 uM),"NC(=O)c1ccc(F)c(-c2cnc(NC[C@]3(c4ncccc4Cl)C[C@H](F)C3)nn2)c1 [3-[3-({[1-(3-chloro(2-pyridyl))-3-fluorocyclobutyl]methyl}amino)(1,2,4-triazin-6-yl)]-4-fluorobenzamide]"
8,A (A=<1 uM),"NC(=O)c1cccc(-c2cnc(NC[C@]3(c4ncccc4Cl)C[C@H](F)C3)nn2)c1 [3-[3-({[1-(3-chloro(2-pyridyl))-3-fluorocyclobutyl]methyl}amino)-1,2,4-triazin-6-yl]benzamide]"
9,B (B=1-10 uM),"N#Cc1cccc(-c2cnc(NC[C@]3(c4ncccc4Cl)C[C@H](F)C3)nn2)c1 [3-[3-({[1-(3-chloro(2-pyridyl))-3-fluorocyclobutyl]methyl}amino)-1,2,4-triazin-6-yl]benzenecarbonitrile]"
10,A (A=<1 uM),"NC(=O)c1ccc(O)c(-c2cnc(NC[C@]3(c4ncccc4F)C[C@H](F)C3)nn2)c1 [3-[3-({[3-fluoro-1-(3-fluoro(2-pyridyl))cyclobulyl]methyl}amino)(1,2,4-triazin-6-yl)]-4-hydroxybenzamide]"
11,A (A=<1 uM),"NC(=O)c1cccc(-c2cnc(NC[C@]3(c4ncccc4F)C[C@H](F)C3)nn2)c1 [3-[3-({[3-fluoro-1-(3-fluoro(2-pyridyl))cyclobutyl]methyl}amino)-1,2,4-triazin-6-yl]benzamide]"
12,A (A=<1 uM),"NC(=O)c1ccc(F)c(-c2cnc(NC3(c4cccc(OC(F)F)n4)CCC3)nn2)c1 [3-[3-({[6-(difluoromethoxy)(2-pyridyl)]cyclobulyl}amino)(1,2,4-triazin-6-yl)]-4-fluorobenzamide]"
13,C (C=10-20 uM),"CC(Nc1ncc(-c2cc(C(N)=O)ccc2F)nn1)c1cccc(OC(F)F)n1 (stereo not drawn) [3-[3-({[6-(difluoromethoxy)(2-pyridyl)]ethyl}amino)(1,2,4-triazin-6-yl)]-4-fluorobenzamide]"
14,D (D=>20 uM),"NC(=O)c1ccc(F)c(-c2cnc(NCc3cccc(OC(F)F)n3)nn2)c1 [3-[3-({[6-(difluoromethoxy)(2-pyridyl)]methyl}amino)(1,2,4-triazin-6-yl)]-4-fluorobenzamide]"
15,A (A=<1 uM),"NC(=O)c1ccc(F)c(-c2cnc(NCC3(c4ncccc4Cl)CCC3)nn2)c1 [3-[3-({[(3-chloro(2-pyridyl))cyclobutyl]methyl}amino)(1,2,4-triazin-6-yl)]-4-fluorobenzamide]"
16,A (A=<1 uM),"O=C(O)c1ccc(F)c(-c2cnc(NCC3(c4ncccc4Cl)CCC3)nn2)c1 [3-[3-({[(3-chloro(2-pyridyl))cyclobutyl]methyl}amino)(1,2,4-triazin-6-yl)]-4-fluorobenzoic acid]"
17,B (B=1-10 uM),"NC(=O)c1cccc(-c2cnc(NCC3(c4ncccc4F)CCC3)nn2)c1 [3-[3-({[(3-fluoro-2-pyridyl)cyclobutyl]methyl}amino)-1,2,4-triazin-6-yl]benzamide]"

row,Mean AC1.4,SMILES
1,B (B=1-10 uM),NC(=O)c1cccc(-c2cnc(NC[C@]3(c4ncccc4F)C[C@H](F)C3)c(F)c2)c1 [3-[5-fluoro-6-({[3-fluoro-1-(3-fluoro(2-pyridyl))cyclobutyl]methyl}amino)-3-pyridyl]benzamide]
2,A (A=<1 uM),"NC(=O)c1cccc(-c2ncc(NCC3(c4ccc(F)cc4)CCC3)nn2)c1 [3-[6-({[(4-fluorophenyl)cyclobutyl]methyl}amino 1,2,4-triazin-3-yl]benzamide]"
3,D (D=>20 uM),"CC(C)(Nc1ncc(-c2ccc(C(N)=O)cc2F)nn1)c1ncccc1F [3-fluoro-4-(3-{[1-(3-fluoro(2-pyridyl))-isopropyl]amino}(1,2,4-triazin-6-yl))benzamide]"
4,D (D=>20 uM),"CC(C)(C)Nc1ncc(-c2cc(C(N)=O)ccc2F)nn1 [3-{3-[(tert-butyl)amino](1,2(4-triazin-6-yl)}-4-fluorobenzamide]"
5,D (D=>20 uM),NC(=O)c1cccc(-c2ccc(NC(=O)Cc3ccc(F)cc3)nc2)c1 [3-{6-[2-(4-fluorophenyl)acetylamino]-3-pyridyl}benzamide]
6,B (B=1-10 uM),CC(C)(CNc1ccc(-c2ccc(C(N)=O)cc2)cn1)c1ccc(F)cc1 [4-(6-{[2-(4-fluorophenyl)-2-methylpropyl]amino}-3-pyridyl)benzamide]
7,B (B=1-10 uM),"CC(C)(Nc1ncc(-c2cc(C(N)=O)ccc2F)nn1)c1ncccc1F [4-fluoro-3-(3-{[1-(3-fluoro(2-pyridyl))-isopropyl]amino}(1,2,4-triazin-6-yl))benzamide]"
8,C (C=10-20 uM),"CC(C)(Nc1ncc(-c2cc(C(=O)O)ccc2F)nn1)c1ncccc1F [4-fluoro-3-(3-{[1-(3-fluoro(2-pyridyl))-isopropyl]amino}(1,2,4-triazin-6-yl))benzoic acid]"
9,B (B=1-10 uM),"Cc1ccc(F)c(C(C)(C)Nc2ncc(-c3cc(C(N)=O)ccc3F)nn2)n1 [4-fluoro-3-(3-{[1-(3-fluoro-6-methyl(2-pyridyl))-isopropyl]amino}(1,2,4-triazin-6-yl))benzamide]"
10,A (A=<1 uM),"CC(C)(Nc1ncc(-c2cc(C(N)=O)ccc2F)nn1)c1ccc(F)cc1 [4-fluoro-3-(3-{[1-(4-fluorophenyl)-isopropyl]amino}(1,2,4-triazin-6-yl))benzamide]"
11,B (B=1-10 uM),"Cc1nc(C(C)(C)Nc2ncc(-c3cc(C(N)=O)ccc3F)nn2)ccc1F [4-fluoro-3-(3-{[1-(5-fluoro-6-methyl(2-pyridyl))-isopropyl]amino}(1,2,4-triazin-6-yl))benzamide]"
12,C (C=10-20 uM),"Cc1cccc(C(C)(C)Nc2ncc(-c3cc(C(N)=O)ccc3F)nn2)n1 [4-fluoro-3-(3-{[1-methyl-1-(6-methyl(2-pyridyl))ethyl]amino}(1,2,4-triazin-6-yl))benzamide]"
13,B (B=1-10 uM),"NC(=O)c1ccc(F)c(-c2cnc(NCC3(c4ccccn4)CCC3)nn2)c1 [4-fluoro-3-(3-{[(2-pyridylcyclobutyl)methyl]amino}(1,2,4-triazin-6-yl))benzamide]"
14,B (B=1-10 uM),"NC(=O)c1ccc(F)c(-c2cnc(NC3(c4ncccc4F)CCC3)nn2)c1 [4-fluoro-3-(3-{[(3-fluoro(2-pyridyl))cyclobutyl]amino}(1,2,4-triazin-6-yl))benzamide]"
15,C (C=10-20 uM),"CC(Nc1ncc(-c2cc(C(N)=O)ccc2F)nn1)c1ncccc1F (stereo not drawn) [4-fluoro-3-(3-{[(3-fluoro(2-pyridyl))ethyl]amino}(1,2,4-triazin-6-yl))benzamide]"
16,B (B=1-10 uM),"NC(=O)c1ccc(F)c(-c2cnc(NC3(c4ccc(F)cc4)CCC3)nn2)c1 [4-fluoro-3-(3-{[(4-fluorophenyl)cyclobutyl]amino}(1,2,4-triazin-6-yl))benzamide]"
